{
  "source": "PubChem BioAssay AID504928",
  "about": "(The Scripps Research Institute Molecular Screening Center, 2011)",
  "test_in_all_cases": "cell viability loss in various cell types – MTT absorbance, EuMyc, HS578, 70Z/3, T47D, SKBR, late-stage follow-up (AID 504928)",
  "conditions_in_all_cases": "tumor cell line panel viability, at 10 µM, stronger effect = lower value",
  "key": {"[1]": {"tested_on": "9E10 Cell Line"}, "[2]": {"tested_on": "Raji Cell Line"}, "[3]": {"tested_on": "MCF7 Cell Line"}, "[4]": {"tested_on": "HS578 Cell Line"}, "[5]": {"tested_on": "MD-MDA-231 Cell Line"}, "[6]": {"tested_on": "70Z/3 Cell Line"}, "[7]": {"tested_on": "Jurkat Cell Line"}, "[8]": {"tested_on": "EuMyc Lymphoma Cell Line"}, "[9]": {"tested_on": "T47D Cell Line"}, "[10]": {"tested_on": "SKBR Cell Line"}},
  "note": "Activity calls are given as the source filed them. No rule for the calls is given here.",
  "data": [
    {"smiles": "O=c1cc(N2CCN(c3cccc(Cl)c3)CC2)[nH]c(=O)n1C1CCCCC1", "values": [
      {"measurement": "viability fold change", "setting": "[1]", "result": "0.8 (inactive)"},
      {"measurement": "viability fold change", "setting": "[2]", "result": 0.19},
      {"measurement": "viability fold change", "setting": "[3]", "result": 0.17},
      {"measurement": "viability fold change", "setting": "[4]", "result": 0.16},
      {"measurement": "viability fold change", "setting": "[5]", "result": 0.11},
      {"measurement": "viability fold change", "setting": "[6]", "result": 0.5},
      {"measurement": "viability fold change", "setting": "[7]", "result": 0.19},
      {"measurement": "viability fold change", "setting": "[8]", "result": "0.63 (inactive)"},
      {"measurement": "viability fold change", "setting": "[9]", "result": 0.19},
      {"measurement": "viability fold change", "setting": "[10]", "result": 0.19}
    ]}
  ]
}
